In ChEMBL document CHEMBL1201862, “PubChem BioAssay data set” (2004):
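Five compound concentrations were applied to cells in 96-well plates for 48 hours; endpoints were derived by simple linear interpolation of the resulting dose-response curve. At the GI50, growth is halved.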 Calls of active or inactive are those of the source. No stated cut-off is given here; in the data, active = GI50 up to about 1.1 µM and inactive = higher.

Key:
Assay in all cases: NCI anticancer screen, dose series, 48 h
SF-268 = system: SF-268
M19-MEL = system: M19-MEL
IGROV-1 = system: IGROV-1
SF-539 = system: SF-539
SR = system: SR
NCI-H522 = system: NCI-H522
HOP-18 = system: HOP-18
CAKI-1 = system: CAKI-1
COLO 205 = system: COLO 205
OVCAR-4 = system: OVCAR-4
Malme-3M = system: Malme-3M
KM12 = system: KM12
SK-MEL-28 = system: SK-MEL-28
786-0 = system: 786-0
SK-MEL-5 = system: SK-MEL-5
MOLT-4 = system: MOLT-4
ACHN = system: ACHN
SF-295 = system: SF-295
SN12C = system: SN12C
HOP-92 = system: HOP-92
TK-10 = system: TK-10
HCT-116 = system: HCT-116
HOP-62 = system: HOP-62
U-251 = system: U-251
A549 = system: A549
LXFL 529 = system: LXFL 529
UO-31 = system: UO-31
HL-60 = system: HL-60
A498 = system: A498
DMS-273 = system: DMS-273
SNB-78 = system: SNB-78
NCI-H23 = system: NCI-H23
HCT-15 = system: HCT-15
HCC 2998 = system: HCC 2998
OVCAR-5 = system: OVCAR-5
LOX IMVI = system: LOX IMVI
UACC-257 = system: UACC-257
KM-20L2 = system: KM-20L2
SW-620 = system: SW-620
CCRF-CEM = system: CCRF-CEM
EKVX = system: EKVX
HT-29 = system: HT-29
SNB-75 = system: SNB-75
K562 = system: K562
OVCAR-8 = system: OVCAR-8
DLD-1 = system: DLD-1
SNB-19 = system: SNB-19
DMS-114 = system: DMS-114
RPMI-8226 = system: RPMI-8226
SK-MEL-2 = system: SK-MEL-2
UACC-62 = system: UACC-62
NCI-H226 = system: NCI-H226
RXF 393 = system: RXF 393
OVCAR-3 = system: OVCAR-3
NCI-H460 = system: NCI-H460
M14 = system: M14
SK-OV-3 = system: SK-OV-3

Measured: GI50

COc1ccc(/C=C2\CCC(CCN(C)C)(C3=CCCC3)C2=O)cc1 (stereo not drawn)
22.3 µM: HCT-15
inactive: SF-268 18.2 µM | M19-MEL 15.1 µM | IGROV-1 16.7 µM | SF-539 16.1 µM | SR 27.2 µM | NCI-H522 16.1 µM | HOP-18 14.1 µM | CAKI-1 10.7 µM | COLO 205 12.8 µM | OVCAR-4 19.7 µM | Malme-3M 16 µM | KM12 18 µM | SK-MEL-28 19 µM | 786-0 15.3 µM | SK-MEL-5 16.5 µM | MOLT-4 23.9 µM | ACHN 16.9 µM | SF-295 18.7 µM | SN12C 19.9 µM | HOP-92 20.7 µM | TK-10 16.7 µM | HCT-116 15.1 µM | HOP-62 18 µM | U-251 16.5 µM | A549 19.2 µM | LXFL 529 16.7 µM | UO-31 14.8 µM | HL-60 15.9 µM | A498 17.7 µM | DMS-273 17.1 µM | SNB-78 21.8 µM | NCI-H23 29 µM | HCC 2998 18.6 µM | OVCAR-5 21.5 µM | LOX IMVI 16.6 µM | UACC-257 16.9 µM | KM-20L2 14.1 µM | SW-620 16.8 µM | CCRF-CEM 17.1 µM | EKVX 14 µM | HT-29 15.5 µM | SNB-75 19 µM | K562 15.7 µM | OVCAR-8 16.8 µM | DLD-1 26.4 µM | SNB-19 16.6 µM | DMS-114 15.6 µM | RPMI-8226 20.8 µM | SK-MEL-2 17.6 µM | UACC-62 16.4 µM | NCI-H226 20.6 µM | RXF 393 7.6 µM | OVCAR-3 19.1 µM | NCI-H460 20.1 µM | M14 15.1 µM

CCCCCCCCCCCCCC1CCC(CC)N1 (stereo not drawn)
inactive: SF-268 8.81 µM | M19-MEL 3.18 µM | IGROV-1 20.9 µM | SF-539 17.6 µM | SR 18.9 µM | NCI-H522 18.2 µM | HOP-18 17.1 µM | CAKI-1 15.8 µM | COLO 205 15.1 µM | OVCAR-4 17.4 µM | Malme-3M 18.4 µM | KM12 17.2 µM | SK-MEL-28 7.66 µM | 786-0 17.5 µM | SK-MEL-5 17.8 µM | MOLT-4 11.9 µM | ACHN 7.23 µM | SF-295 18.6 µM | SN12C 11.3 µM | HOP-92 16.2 µM | TK-10 17.7 µM | HCT-116 15.6 µM | HOP-62 7.1 µM | U-251 7.41 µM | A549 20.8 µM | LXFL 529 18.2 µM | UO-31 14.2 µM | HL-60 5.14 µM | A498 21.4 µM | DMS-273 14.5 µM | SNB-78 13 µM | NCI-H23 18.6 µM | HCC 2998 2.41 µM | OVCAR-5 16.6 µM | LOX IMVI 17.5 µM | UACC-257 20.7 µM | KM-20L2 13.3 µM | SW-620 15.9 µM | CCRF-CEM 5.2 µM | EKVX 16.9 µM | HT-29 5.81 µM | SNB-75 7.28 µM | K562 14.8 µM | OVCAR-8 20 µM | DLD-1 14.9 µM | SNB-19 16.9 µM | DMS-114 7 µM | RPMI-8226 14 µM | SK-OV-3 17 µM | SK-MEL-2 21.8 µM | UACC-62 6.98 µM | NCI-H226 15.3 µM | RXF 393 17.9 µM | OVCAR-3 16.2 µM | NCI-H460 2.12 µM | M14 17.9 µM
6.52 µM: HCT-15
